Test results reported in patent US8148354B2, “Use of 20(S)-protopanaxadiol in manufacture of antidepressants” (priority 2006, dated 2012).

What was measured:
[1] = system: mice in the tail suspension test; test: Tail suspension test in mice; type: in vivo, Kunming mice; settings: mean ± SD
Text: Fifty male Kunming mice, 9-10 weeks old and weighing 22-24 g, were randomly divided by weight into 5 groups and administered by gavage a dose of one of the drugs listed in Table 6. Sixty minutes later, mice were individually suspended by the tail (1 cm from the tip) to a horizontal 1 cm-diameter PVC bar by use of the adhesive tape. The tail of mouse was thereby prevented from twisting. The PVC bar was placed overhead to suspend the mouse upside-down, keeping the head 5 cm above the table surface. To avoid interference, each mouse was partitioned by clapboard. […] T-test was used for statistical analysis.
Fifty male Kunming mice, 8-9 weeks old and weighing 18-22 g, were randomly divided by weight into 5 groups, and administered by gavage a dose of one of the drugs listed in Table 7 for 10 consecutive days. Sixty minutes after the last dose, mice were individually suspended by the tail (1 cm from the tip) from a horizontal 1 cm-diameter PVC bar using the adhesive tape. The tail of the mouse was thereby prevented from twisting. The PVC bar was placed overhead to suspend the mouse upside down, keeping the head 5 cm above the table surface. To avoid interference, each mouse was partitioned by clapboard.

[2] = system: model rats wearing shackles; test: Stress testing of rats wearing shackles (open-field test); type: in vivo; settings: shackle model rats, mean ± SD
Text: (i) Modeling Method: Sixty male SD rats, 8-9 weeks old and weighing 200-250 g, were randomly divided into 6 groups and subjected to gavage once a day as shown in Table 9. On the first day, individually housed rats were fitted with a cylindrical plastic shackle-like device composed of two pieces of red organic glass 0.2 cm-thick and 4 cm in diameter. The device could be adjusted according to the size of the animals and was worn for 21 days.
(ii) Test Indexes: Behavior such as rearing up; grabbing and gnawing; braying; slowness in reactions; action tardiness; narrowing of the eyes with secretion; yellow of fur; small, dry and fewer feces; borrow-reddish fail with scales and weight loss. An open-field test was used to observe the behavior of animals on day 21 (the same method used with the chronic stress rat model).

5-HT Re-uptake = test: 5-HT re-uptake test ([14C]-5-HT, hypothalamus homogenate); type: biochemical, SD rats
Method: Eight male SD rats were decapitated. The hypothalamuses were rapidly removed, weighed and homogenized in a 9-fold volume of 0.32 mol/L ice-cold sucrose solution, and centrifuged at a rate of 3420 rpm for 10 minutes at 0-4° C. […] Ten tubes were prepared for each group and all tubes were incubated at 37° C. for 5 minutes. […] CO2 chamber for 5 minutes, followed by centrifugation at a rate of 7,480 rpm for 10 minutes. The supernatant of the solution was put into a scintillation vial for counting after adding 10 ml scintillation fluid (scintillation was performed 3 times). The re-uptake of serotonin was calculated by the difference in DMP at 37° C. and 0° C.

NA Re-uptake = test: NA re-uptake test ([3H]-norepinephrine, corpus striatum homogenate); type: biochemical, SD rats
[3] = system: mice in the forced swimming test; test: Forced swimming test using mice; type: in vivo, Kunming mice; settings: mean ± SD
Method: Fifty male Kunming mice, 9-10 weeks old and weighing 22-24 g, were randomly divided by weight into 5 groups and administered by gavage a single dose of one of the drugs listed in Table 6. Sixty minutes later, the mice were placed in individual beakers (2500 ml, 20 cm×14 cm in diameter), which had previously been filled with water (25° C.) up to 10 cm from the bottom. The duration of immobility in the last 4 minutes in the 6-min swimming test was recorded (the term immobility indicates no movement except for respiration). T-test was used for statistical analysis.
Fifty male Kunming mice, 8-9 weeks old and weighing 18-22 g, were randomly divided by weight into 5 groups and subjected to gavage once a day for 10 consecutive days as shown in Table 7. Sixty minutes after the last dose, the mice were individually placed in beakers (2500 ml, 20 cm×14 cm in diameter), which had previously been filled with water (25° C.) up to 10 cm from the bottom. The cumulative time of immobility in the last 4 minutes of a total swimming time of 6 minutes was recorded (the term immobility indicates no movement except for respiration). T-test was used for statistical analysis.

[4] = multiple dose 18 mg/kg × 10 i.g.
[5] = open-field day 21, 16 mg/kg × 21 i.g.

## CC(C)=CCC[C@](C)(O)[C@H]1CC[C@]2(C)[C@@H]1[C@H](O)C[C@@H]1[C@@]3(C)CC[C@H](O)C(C)(C)[C@@H]3CC[C@]12C [20(S)-protopanaxadiol]
[1]; single dose 3.75 mg/kg × 1 i.g.
  Cumulative immobility within 6 minutes: 95.00 ± 36.21 s
[1]; single dose 7.5 mg/kg × 1 i.g.
  Cumulative immobility within 6 minutes: 92.30 ± 32.93 s
[2]; open-field day 21, 3.33 mg/kg × 21 i.g.
  Number of crossing: 7.00 ± 2.05 times/3 min
5-HT Re-uptake; concentration 0.01 μg/ml
  Amount of re-uptake: 4377.8 ± 479.7 dmp
  Inhibitory rate: 11.7%
5-HT Re-uptake; concentration 0.1 μg/ml
  Amount of re-uptake: 4117.3 ± 532.0 dmp
  Inhibitory rate: 17.0%
5-HT Re-uptake; concentration 1 μg/ml
  Amount of re-uptake: 3963.5 ± 459.4 dmp
  Inhibitory rate: 20.1%
5-HT Re-uptake; concentration 10 μg/ml
  Amount of re-uptake: 3696.4 ± 392.9 dmp
  Inhibitory rate: 25.5%
NA Re-uptake; concentration 0.01 μg/ml
  Amount of re-uptake: 5347.8 ± 555.1 dmp
  Inhibitory rate: 4.4%
NA Re-uptake; concentration 0.1 μg/ml
  Amount of re-uptake: 5137.2 ± 465.7 dmp
  Inhibitory rate: 8.2%
NA Re-uptake; concentration 1 μg/ml
  Amount of re-uptake: 4950.6 ± 534.5 dmp
  Inhibitory rate: 11.5%
NA Re-uptake; concentration 10 μg/ml
  Amount of re-uptake: 4690.1 ± 332.1 dmp
  Inhibitory rate: 16.2%

## CNCCC(Oc1ccc(C(F)(F)F)cc1)c1ccccc1 (centres unmarked) [Fluoxetine, reference compound]
[1]; [4]
  Cumulative immobility within 6 minutes: 59.10 ± 35.40 s
[1]; single dose 18 mg/kg × 1 i.g.
  Cumulative immobility within 6 minutes: 70.90 ± 23.11 s
[3]; [4]
  Cumulative immobility within 4 minutes: 81.50 ± 36.77 s
[3]; single dose 18 mg/kg × 1 i.g.
  Cumulative immobility within 6 minutes: 86.20 ± 32.56 s
[2]; [5]
  Number of crossing: 11.20 ± 3.08 times/3 min
  Number of rearing: 49.80 ± 20.31 times/3 min
NA Re-uptake; concentration 1 μg/ml
  Amount of re-uptake: 4311.8 ± 733.8 dmp
